Data from PMC5797143, “Epigenetic modulation of inflammation and synaptic plasticity promotes resilience against stress in mice” (Nature Communications, 2018).
Where two headings read alike, the source gives them in different places.

Tests used:
HepG2 cells = test: Cytotoxicity by high content screening (HCS); format: cell-based
From the text: Based on the efficacy of DHCA/Mal-gluc in treating stress-induced depression, we initiated an in vitro toxicity and drug-like properties studies to investigate the potential of developing these two phytochemicals as novel therapies. […] At low concentrations, DHCA and Mal-gluc had no detectable effects on cell number, nuclear size, DNA structure, cell membrane permeability, mitochondrial mass, mitochondrial membrane potential or cytochrome C release in high content screening (HCS)[41] using HepG2 cells (Table 1). At high concentrations, Mal-gluc reduced cell number, increased nuclear size, […], and increased mitochondrial mass, with calculated EC50s beyond physiological concentration (Table 1).
MTT and LDH release assays were conducted in MSN-enriched primary neurons and in PBMCs[64]. Cellular cytotoxicity was conducted in HepG2 cells using high content screening (HCS) protocols. Briefly, HepG2 cells were plated on 384-well tissue culture treated black walled clear bottomed polystyrene plates and treated with varying concentrations of Mal-gluc or DHCA. The cells were loaded with the relevant dye/antibody for each cell-health marker following incubation, including cell count, markers for nuclear size, DNA structure, cell membrane permeability, mitochondrial mass, mitochondrial membrane potential and cytochrome C release. The plates were then scanned using an automated fluorescent cellular imager ArrayScanr (Thermo Scientific Cellomics).

[1] = system: 37 monoaminergic receptors and transporters; test: Radioligand binding assay, whole panel; conditions: concentrations as high as 10 µM
Method: Currently available antidepressants are believed to act by modifying the activity of the brain monoaminergic system, [47]. We evaluated whether Mal-gluc and DHCA directly interact with the monoaminergic system using a radioligand binding assay.
Radioligand binding assays were performed as previously described. Briefly, crude membrane fractions prepared from a stable HEK cell line expressing recombinant receptors were mixed with a radiolabeled specific ligand and 10 µM of competitor compound (DHCA, Mal-gluc, or non-specific ligand). The percentage of radioligand binding was subsequently measured.

[2] = system: CpG-rich sequences of mouse IL-6 promoter and introns 1, 3; test: CpG-free luciferase reporter with IL-6 promoter/intron CpG-rich segments in N2a cells; format: cell-based; conditions: 24 h
Method: To investigate how DHCA may attenuate IL-6 generation, we tested the effect of DHCA on Toll-like receptor-4 mediated signaling pathways. PBMCs were pretreated with DHCA and stimulated with LPS using the same protocol as during screening. Samples were taken at 0, 30 min, 60 min, 6 h and 16 h following LPS stimulation and cell lysates were subjected to a multiplex ELISA assay. […] Based on evidence that DNA methylation at a single CpG in the human IL-6 promoter region effectively alters IL-6 expression, we next tested whether DHCA can modulate IL-6 gene expression through methylation mechanisms. We treated PBMC cells with DHCA and measured the expression of enzymes essential for DNA methylation/demethylation. […] To investigate how methylation influences IL-6 gene expression, we employed the CpG-free luciferase reporter system. We cloned a ~280 bp CpG rich DNA segment from the mouse IL-6 promoter into a promoterless CpG-free reporter construct and transfected into N2a cells. We found the CpG-rich IL-6 promoter segment presented no inherent promoter activity as reflected by no differences in luciferase activity compared to the control construct (Fig. 2f). […] We then cloned CpG rich DNA segments from IL-6 introns 1, 3 or 4 into the CpG-free luciferase reporter construct with a minimal EF1 promoter and no enhancer activity. […] In contrast, the CpG-rich region of IL-6 intron 4 presented no observable enhancer activity (Fig. 2g). […] To test whether DHCA may influence the expression of other pro-inflammatory factors, we measured the level of secreted cytokines following LPS stimulation (Supplementary Fig. 3).
CpG-rich motif from mouse IL-6 promoter and intron 1, intron 3, and intron 4 were cloned into basic (no promoter or enhancer) or promoter (minimal EF1 promoter with no enhancer) pCpG-free Lucia plasmid (InvivoGen) using In-Fusion Cloning Kit (Clontech Laboratories). Plasmids were prepared in E. coli GT115 cells and expressed in N2A neuoblastoma cells using lipofectamine 2000 (ThermoFisher) according to manufacturer’s instruction. Following overnight recovery, cells were subjected to 5 µM of methylation inhibitor 5-Aza-2′-deoxycytidine (AZA-DC) or DHCA treatment. Twenty-four hours later, 10 µl of medium was incubated with 50 µl of QUANTI-Luc luciferase substrate for luciferase activity assessment.

IL-6 = test: In vivo dose finding: plasma IL-6 after LPS challenge; set-up: species or system mouse; conditions: 50 µg to 50 mg/kg-BW/day in drinking water, 2 weeks; LPS 0.4 mg/kg-BW i.p.; 5 and 50 mg/kg most significant
Method: We then initiated dose response and safety studies in mice to determine testing dosages and safety of DHCA and Mal-gluc. C57BL/6 mice were treated with either DHCA (doses ranging from 50 µg to 50 mg/kg-BW/day) or Mal-gluc (doses ranging from 50 ng to 5 mg/kg-BW/day) for 2 weeks to simulate long-term administration. Mice treated with DHCA were challenged with intraperitoneal (i.p.) injection of 0.4 mg/kg-BW LPS and plasma levels of IL-6 were measured 6 h post injection. […] Following common discovery-stage practices, we measured the plasma levels of alkaline phosphatase (ALP), aspartate aminotransferase (AST), and alanine aminotransferase (ALT) for liver function and blood urea nitrogen (BUN) for renal function.
Male C57BL/6 J mice (8-week-old) were placed on a polyphenol-free AIN-93M diet and treated with various doses of DHCA (vehicle, 50 µg, 500 µg, 5 mg, and 50 mg/kg-BW/day), delivered through their drinking water for two weeks. Animals were then sacrificed and plasma was collected for routine biochemistry panel analysis including ALP, ALT, and AST for liver function and blood urea nitrogen (BUN) content for kidney function. A separate group of mice was similarly treated and challenged with an i.p. injection of 0.4 mg/kg body weight LPS and plasma was collected 6 h post injection for IL-6 analysis. […]

[3] = system: DNA-methyltransferase 1 (DNMT1); test: Expression of DNA methylation/demethylation enzymes in PBMCs; format: cell-based, mouse
Method: To investigate how DHCA may attenuate IL-6 generation, we tested the effect of DHCA on Toll-like receptor-4 mediated signaling pathways. PBMCs were pretreated with DHCA and stimulated with LPS using the same protocol as during screening. Samples were taken at 0, 30 min, 60 min, 6 h and 16 h following LPS stimulation and cell lysates were subjected to a multiplex ELISA assay. […] Based on evidence that DNA methylation at a single CpG in the human IL-6 promoter region effectively alters IL-6 expression, we next tested whether DHCA can modulate IL-6 gene expression through methylation mechanisms. We treated PBMC cells with DHCA and measured the expression of enzymes essential for DNA methylation/demethylation. […] To investigate how methylation influences IL-6 gene expression, we employed the CpG-free luciferase reporter system. […] To test whether DHCA may influence the expression of other pro-inflammatory factors, we measured the level of secreted cytokines following LPS stimulation (Supplementary Fig. 3).
Total RNA from MSN-enriched cultures or brain NAc was isolated using the RNeasy Mini Kit (Qiagen, Valencia, CA, USA) and reverse transcribed. Gene expression was measured in four replicates by quantitative RT-PCR using Maxima SYBR Green master mix (Fermentas) in ABI Prism 7900HT. […]

Row | SMILES | AC50 (HepG2 cells; DHCA ↑ (NS, fit not statistically significant), NR = No response observed, read-out: Cytotoxicity by HCS (AC50), Mitochondrial membrane potential) [µM] | AC50 (HepG2 cells; DHCA ↑, NR = No response observed, read-out: Cytotoxicity by HCS (AC50), Cytochrome C release) [µM] | AC50 (HepG2 cells; Malvidin-gluc ↑, NR = No response observed, read-out: Cytotoxicity by HCS (AC50), Mitochondrial mass) [µM] | AC50 (HepG2 cells; Malvidin-gluc ↑, NR = No response observed, read-out: Cytotoxicity by HCS (AC50), Nuclear size) [µM] | AC50 (HepG2 cells; Malvidin-gluc ↓, NR = No response observed, read-out: Cytotoxicity by HCS (AC50), Cell number) [µM] | AC50 (HepG2 cells; NR = No response observed, read-out: Cytotoxicity by HCS (AC50), DNA structure) [µM] | AC50 (HepG2 cells; both ↓, read-out: Cytotoxicity by HCS (AC50), Cell membrane permeability) [µM] | binding with any of the 37 receptors and transporters tested [1] | luciferase (enhancer) activity, IL-6 intron 1 [2] | luciferase (enhancer) activity, IL-6 intron 3 [2] | plasma IL-6 6 h post LPS injection (IL-6) | expression of DNMT1 [3]
1 | COc1cc(-c2[o+]c3cc(O)cc(O)c3cc2O[C@@H]2O[C@H](CO)[C@@H](O)[C@H](O)[C@H]2O)cc(OC)c1O [Mal-gluc] | > 200 | > 200 | 176 | 88.4 | 176 | > 200 | 52.7 | – | – | – | – | –
2 | O=C(O)CCc1ccc(O)c(O)c1 [DHCA, 3(3,4-dihydroxy-phenyl) propionic acid] | – | – | – | – | – | – | – | no significant binding | partially attenuated | totally abolished | dose-dependent suppression of IL-6 | significantly reduced
